How the values were obtained:
U-87 MG [1] = test: In vitro cytotoxicity against parental and drug resistant glioblastoma human tumor cell line U87MG; type: functional, cell-based, U-87MG ATCC
HOS [2] = test: In vitro cytotoxicity against parental and drug resistant bone human tumor cell line HOS; type: functional, cell-based
KB [3] = test: In vitro cytotoxicity against parental and drug resistant vincristine resistant human tumor cell line KB-VIN; type: functional, cell-based
KB [4] = test: In vitro cytotoxicity against parental and drug resistant camptothecin resistant human tumor cell line KB-CPT; type: functional, cell-based
KB [5] = test: In vitro cytotoxicity against parental and drug resistant nasopharyngeal human tumor cell line KB; type: functional, cell-based
1A9/ptx-10 [6] = test: In vitro cytotoxicity against parental and drug resistant paclitaxel human tumor cell line IA9-PTX10; type: functional, cell-based
HCT-8 [7] = test: In vitro cytotoxicity against parental and drug resistant ileococal human tumor cell line HCT-8; type: functional, cell-based
1A9 [8] = test: In vitro cytotoxicity against parental and drug resistant ovarian human tumor cell line IA9; type: functional, cell-based
KB [9] = test: In vitro cytotoxicity against parental and drug resistant etoposide resistant human tumor cell line KB-7d; type: functional, cell-based
SK-MEL-2 [10] = test: In vitro cytotoxicity against parental and drug resistant melanoma human tumor cell line SK-MEL-2; type: functional, cell-based
CAKI-1 [11] = test: In vitro cytotoxicity against parental and drug resistant kidney human tumor cell line CAKI; type: functional, cell-based
A549 [12] = test: In vitro cytotoxicity against parental and drug resistant lung human tumor cell line A549; type: functional, cell-based
MCF7 [13] = test: In vitro cytotoxicity against parental and drug resistant breast human tumor cell line MCF-7; type: functional, cell-based
KB [14] = test: In vitro cytotoxicity against parental and drug resistant camptothecin resistant human tumor cell line KB-CPT; Not active at 10 uM; type: functional, cell-based
KB [15] = test: Percentage inhibition against parental and drug resistant vincristine resistant human tumor cell line KB-VIN at 10 uM; type: functional
1A9/ptx-10 [16] = test: In vitro cytotoxicity against parental and drug resistant paclitaxel human tumor cell line IA9-PTX10; Not active at 10 uM; type: functional, cell-based
HCT-8 [17] = test: In vitro cytotoxicity against parental and drug resistant ileococal human tumor cell line HCT-8; Not active at 10 uM; type: functional, cell-based
SK-MEL-2 [18] = test: Percentage inhibition against parental and drug resistant melanoma human tumor cell line SK-MEL-2 at 10 uM; type: functional
HOS [19] = test: In vitro cytotoxicity against parental and drug resistant bone human tumor cell line HOS; Not active at 10 uM; type: functional, cell-based
KB [20] = test: Percentage inhibition against parental and drug resistant nasopharyngeal human tumor cell line KB at 10 uM; type: functional
CAKI-1 [21] = test: In vitro cytotoxicity against parental and drug resistant kidney human tumor cell line CAKI; Not active at 10 uM; type: functional, cell-based
KB [22] = test: Percentage inhibition against parental and drug resistant etoposide resistant human tumor cell line KB-7d at 10 uM; type: functional
U-87 MG [23] = test: In vitro cytotoxicity against parental and drug resistant glioblastoma human tumor cell line U87MG; Not active at 10 uM; type: functional, cell-based; conditions: u-87mg atcc
MCF7 [24] = test: In vitro cytotoxicity against parental and drug resistant breast human tumor cell line MCF-7 at 10 uM; type: functional
KB [25] = test: Tested for cytotoxicity against parental and drug resistant etoposide resistant human tumor cell line KB-7d; type: functional, cell-based
A549 [26] = test: Percentage inhibition against parental and drug resistant lung human tumor cell line A549 at 10 uM; type: functional
1A9 [27] = test: In vitro cytotoxicity against parental and drug resistant ovarian human tumor cell line IA9; Not active at 10 uM; type: functional, cell-based

## C=C/C(C)=C/C[C@@]1(C)[C@@H](C)CCC23C(=C[C@@H](OC(=O)C(C)C)C[C@@H]21)[C@H](OC(C)=O)O[C@@H]3OC(C)=O (stereo partly drawn)
U-87 MG [1]
  IC50: 1.2 µM
HOS [2]
  IC50: 0.9 µM
KB [3]
  IC50: 1 µM
KB [4]
  IC50: 0.9 µM
KB [5]
  IC50: 0.9 µM
1A9/ptx-10 [6]
  IC50: 0.5 µM
HCT-8 [7]
  IC50: 1 µM
1A9 [8]
  IC50: 0.6 µM
KB [9]
  IC50: 0.9 µM
SK-MEL-2 [10]
  IC50: 1 µM
CAKI-1 [11]
  IC50: 1.8 µM
A549 [12]
  IC50: 1.1 µM
MCF7 [13]
  IC50: 1.1 µM

## C=C/C(C)=C/C[C@@]1(C)[C@@H](C)C[C@@H](O)C23C(=C[C@@H](OC(=O)C(C)C)C[C@@H]21)[C@H](OC(C)=O)O[C@@H]3OC(C)=O (stereo partly drawn)
U-87 MG [1]
  IC50: 1 µM
HOS [2]
  IC50: 0.8 µM
KB [3]
  IC50: 1.1 µM
KB [4]
  IC50: 0.8 µM
KB [5]
  IC50: 0.9 µM
1A9/ptx-10 [6]
  IC50: 0.5 µM
HCT-8 [7]
  IC50: 0.9 µM
1A9 [8]
  IC50: 0.5 µM
KB [9]
  IC50: 0.8 µM
SK-MEL-2 [10]
  IC50: 0.7 µM
CAKI-1 [11]
  IC50: 1.1 µM
A549 [12]
  IC50: 0.5 µM
MCF7 [13]
  IC50: 0.9 µM

## C=C/C(C)=C/C[C@]1(C)[C@H]2C[C@H](OC(=O)C(C)CC)C=C3[C@H](OC(C)=O)O[C@H](OC(C)=O)[C@@]32[C@H](O)C[C@@H]1C (stereo partly drawn) [CASEARLUCIN A]
U-87 MG [1]
  IC50: 1.4 µM
HOS [2]
  IC50: 1.2 µM
KB [3]
  IC50: 1.2 µM
KB [4]
  IC50: 1.1 µM
KB [5]
  IC50: 1.1 µM
1A9/ptx-10 [6]
  IC50: 1.1 µM
HCT-8 [7]
  IC50: 1.3 µM
1A9 [8]
  IC50: 1 µM
KB [9]
  IC50: 1.1 µM
SK-MEL-2 [10]
  IC50: 1 µM
CAKI-1 [11]
  IC50: 1.9 µM
A549 [12]
  IC50: 1.1 µM
MCF7 [13]
  IC50: 1.8 µM

## C=C/C(C)=C/C[C@@]1(C)[C@@H](C)CC[C@]2(COC(C)=O)C(COC(C)=O)=CC(=O)C[C@@H]21
KB [14]
  IC50: Not Active
KB [15]
  inhibition at 10 µM: 22%
1A9/ptx-10 [16]
  IC50: Not Active
HCT-8 [17]
  IC50: Not Active
KB [3]
  IC50: > 10 µM
SK-MEL-2 [18]
  inhibition at 10 µM: 7%
KB [5]
  IC50: > 10 µM
HOS [19]
  IC50: Not Active
KB [20]
  inhibition at 10 µM: 7%
CAKI-1 [21]
  IC50: Not Active
KB [22]
  inhibition at 10 µM: 23%
U-87 MG [23]
  IC50: Not Active
SK-MEL-2 [10]
  IC50: > 10 µM
MCF7 [24]
  inhibition at 10 µM: 12%
KB [25]
  IC50: > 10 µM
A549 [26]
  inhibition at 10 µM: 6%
A549 [12]
  IC50: > 10 µM
MCF7 [13]
  IC50: > 10 µM
1A9 [27]
  IC50: Not Active
